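Method: 48-hour compound exposure of cells in 96-well plates, five concentrations, linear interpolation of endpoints. Here, GI50 denotes the concentration required for 50% inhibition of growth.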 The source made the active and inactive calls. Rule as the data show it: active = GI50 up to about 1.1 µM and inactive = higher.
Tests used:
Assay in all cases: DTP human tumour cell line panel, 48 h
EKVX = system: EKVX
K562 = system: K562
CAKI-1 = system: CAKI-1
A549 = system: A549
OVCAR-3 = system: OVCAR-3
SF-539 = system: SF-539
Hs-578T = system: Hs-578T
SW-620 = system: SW-620
Malme-3M = system: Malme-3M
RXF 393 = system: RXF 393
SN12C = system: SN12C
NCI-H460 = system: NCI-H460
UO-31 = system: UO-31
OVCAR-5 = system: OVCAR-5
U-251 = system: U-251
OVCAR-4 = system: OVCAR-4
IGROV-1 = system: IGROV-1
MOLT-4 = system: MOLT-4
SF-268 = system: SF-268
MCF7 = system: MCF7
PC-3 = system: PC-3
HL-60 = system: HL-60
MDA-N = system: MDA-N
SNB-75 = system: SNB-75
HCC 2998 = system: HCC 2998
TK-10 = system: TK-10
HOP-62 = system: HOP-62
NCI-H226 = system: NCI-H226
HT-29 = system: HT-29
786-0 = system: 786-0
A498 = system: A498
NCI-H522 = system: NCI-H522
UACC-62 = system: UACC-62
ACHN = system: ACHN
SR = system: SR
MDA-MB-231 = system: MDA-MB-231
KM12 = system: KM12
HOP-92 = system: HOP-92
SK-MEL-28 = system: SK-MEL-28
LOX IMVI = system: LOX IMVI
COLO 205 = system: COLO 205
BT-549 = system: BT-549
CCRF-CEM = system: CCRF-CEM
SNB-19 = system: SNB-19
UACC-257 = system: UACC-257
DU-145 = system: DU-145
SK-OV-3 = system: SK-OV-3
NCI/ADR-RES = system: NCI/ADR-RES
NCI-H23 = system: NCI-H23
SK-MEL-2 = system: SK-MEL-2
SK-MEL-5 = system: SK-MEL-5
HCT-116 = system: HCT-116
MDA-MB-435 = system: MDA-MB-435
SF-295 = system: SF-295
M14 = system: M14
RPMI-8226 = system: RPMI-8226
T47D = system: T47D
HCT-15 = system: HCT-15
OVCAR-8 = system: OVCAR-8

## C=C(Cl)/C(=C\Br)CCC(Cl)C(C)C.C=C(Cl)/C(=C\Cl)CCC(Cl)C(C)C (centres undefined)
EKVX
  GI50: 18.7 µM (inactive)
K562
  GI50: 4.03 µM (inactive)
CAKI-1
  GI50: 17.8 µM (inactive)
A549
  GI50: 28 µM (inactive)
OVCAR-3
  GI50: 16.5 µM (inactive)
SF-539
  GI50: 18.2 µM (inactive)
Hs-578T
  GI50: 11.9 µM (inactive)
SW-620
  GI50: 2.75 µM (inactive)
Malme-3M
  GI50: 15.1 µM (inactive)
RXF 393
  GI50: 11.3 µM (inactive)
SN12C
  GI50: 17.2 µM (inactive)
NCI-H460
  GI50: 18.1 µM (inactive)
UO-31
  GI50: 18.2 µM (inactive)
OVCAR-5
  GI50: 20.5 µM (inactive)
U-251
  GI50: 16.4 µM (inactive)
OVCAR-4
  GI50: 16.3 µM (inactive)
IGROV-1
  GI50: 14.7 µM (inactive)
MOLT-4
  GI50: 6.52 µM (inactive)
SF-268
  GI50: 18.6 µM (inactive)
MCF7
  GI50: 10.6 µM (inactive)
PC-3
  GI50: 19.8 µM (inactive)
HL-60
  GI50: 4.24 µM (inactive)
MDA-N
  GI50: 15 µM (inactive)
SNB-75
  GI50: 18 µM (inactive)
HCC 2998
  GI50: 18.7 µM (inactive)
TK-10
  GI50: 19.8 µM (inactive)
HOP-62
  GI50: 18.3 µM (inactive)
NCI-H226
  GI50: 23.4 µM (inactive)
HT-29
  GI50: 17.7 µM (inactive)
786-0
  GI50: 15.3 µM (inactive)
A498
  GI50: 20.3 µM (inactive)
NCI-H522
  GI50: 4.73 µM (inactive)
UACC-62
  GI50: 12.7 µM (inactive)
ACHN
  GI50: 16.8 µM (inactive)
SR
  GI50: 6.53 µM (inactive)
MDA-MB-231
  GI50: 16.5 µM (inactive)
KM12
  GI50: 14.3 µM (inactive)
HOP-92
  GI50: 15 µM (inactive)
SK-MEL-28
  GI50: 17.2 µM (inactive)
LOX IMVI
  GI50: 1.67 µM (inactive)
COLO 205
  GI50: 26.3 µM (inactive)
BT-549
  GI50: 15.2 µM (inactive)
CCRF-CEM
  GI50: 5.62 µM (inactive)
SNB-19
  GI50: 17.6 µM (inactive)
UACC-257
  GI50: 13.6 µM (inactive)
DU-145
  GI50: 18 µM (inactive)
SK-OV-3
  GI50: 22.8 µM (inactive)
NCI/ADR-RES
  GI50: 27.5 µM (inactive)
NCI-H23
  GI50: 14.6 µM (inactive)
SK-MEL-2
  GI50: 13.6 µM (inactive)
SK-MEL-5
  GI50: 13.9 µM (inactive)
HCT-116
  GI50: 16.1 µM (inactive)
MDA-MB-435
  GI50: 15.3 µM (inactive)
SF-295
  GI50: 18.8 µM (inactive)
M14
  GI50: 17.4 µM (inactive)

## N=C(N)N/N=C\c1c(-c2cccc([N+](=O)[O-])c2)nc2sc(Cl)cn12
EKVX
  GI50: 3.15 µM (inactive)
K562
  GI50: 0.575 µM (active)
CAKI-1
  GI50: 2.33 µM (inactive)
A549
  GI50: 2.84 µM (inactive)
OVCAR-3
  GI50: 3.24 µM (inactive)
SF-539
  GI50: 2.6 µM (inactive)
Hs-578T
  GI50: 43.4 µM (inactive)
SW-620
  GI50: 3.18 µM (inactive)
Malme-3M
  GI50: 2.42 µM (inactive)
RXF 393
  GI50: 2.19 µM (inactive)
SN12C
  GI50: 2.6 µM (inactive)
RPMI-8226
  GI50: 2.22 µM (inactive)
NCI-H460
  GI50: 2.67 µM (inactive)
UO-31
  GI50: 1.71 µM (inactive)
T47D
  GI50: 1.64 µM (inactive)
OVCAR-5
  GI50: 3.91 µM (inactive)
U-251
  GI50: 3.17 µM (inactive)
OVCAR-4
  GI50: 1.54 µM (inactive)
IGROV-1
  GI50: 1.8 µM (inactive)
MOLT-4
  GI50: 2 µM (inactive)
SF-268
  GI50: 3.06 µM (inactive)
MCF7
  GI50: 2.61 µM (inactive)
PC-3
  GI50: 2.13 µM (inactive)
HL-60
  GI50: 2 µM (inactive)
SNB-75
  GI50: 1.52 µM (inactive)
HCC 2998
  GI50: 2.31 µM (inactive)
TK-10
  GI50: 2.38 µM (inactive)
NCI-H226
  GI50: 53.2 µM (inactive)
HT-29
  GI50: 1.73 µM (inactive)
786-0
  GI50: 3.27 µM (inactive)
A498
  GI50: 27.4 µM (inactive)
NCI-H522
  GI50: 1.98 µM (inactive)
UACC-62
  GI50: 27.5 µM (inactive)
ACHN
  GI50: 29.2 µM (inactive)
SR
  GI50: 0.61 µM (active)
MDA-MB-231
  GI50: 2.74 µM (inactive)
KM12
  GI50: 2.32 µM (inactive)
HOP-92
  GI50: 3.16 µM (inactive)
SK-MEL-28
  GI50: 2.21 µM (inactive)
LOX IMVI
  GI50: 3.7 µM (inactive)
COLO 205
  GI50: 1.93 µM (inactive)
BT-549
  GI50: 2.39 µM (inactive)
CCRF-CEM
  GI50: 1.26 µM (inactive)
SNB-19
  GI50: 2.45 µM (inactive)
UACC-257
  GI50: 2.29 µM (inactive)
HCT-15
  GI50: 4.07 µM
DU-145
  GI50: 2.48 µM (inactive)
NCI/ADR-RES
  GI50: > 100 µM (inactive)
NCI-H23
  GI50: 2.75 µM (inactive)
SK-MEL-2
  GI50: 1.96 µM (inactive)
OVCAR-8
  GI50: 2.75 µM (inactive)
SK-MEL-5
  GI50: 24.4 µM (inactive)
MDA-MB-435
  GI50: 2.07 µM (inactive)
SF-295
  GI50: 2.31 µM (inactive)
M14
  GI50: 3.49 µM (inactive)

## CC(NC(=O)C(N)CC(=O)O)NC(=O)N1CCOCC1 (centres undefined)
EKVX
  GI50: > 100 µM (inactive)
K562
  GI50: > 100 µM (inactive)
CAKI-1
  GI50: > 100 µM (inactive)
A549
  GI50: > 100 µM (inactive)
OVCAR-3
  GI50: > 100 µM (inactive)
SF-539
  GI50: > 100 µM (inactive)
Hs-578T
  GI50: > 100 µM (inactive)
SW-620
  GI50: > 100 µM (inactive)
Malme-3M
  GI50: > 100 µM (inactive)
RXF 393
  GI50: > 100 µM (inactive)
SN12C
  GI50: > 100 µM (inactive)
RPMI-8226
  GI50: > 100 µM (inactive)
NCI-H460
  GI50: > 100 µM (inactive)
UO-31
  GI50: > 100 µM (inactive)
OVCAR-5
  GI50: > 100 µM (inactive)
U-251
  GI50: > 100 µM (inactive)
OVCAR-4
  GI50: > 100 µM (inactive)
IGROV-1
  GI50: > 100 µM (inactive)
MOLT-4
  GI50: > 100 µM (inactive)
SF-268
  GI50: > 100 µM (inactive)
MCF7
  GI50: > 100 µM (inactive)
PC-3
  GI50: > 100 µM (inactive)
MDA-N
  GI50: > 100 µM (inactive)
SNB-75
  GI50: > 100 µM (inactive)
TK-10
  GI50: > 100 µM (inactive)
HOP-62
  GI50: > 100 µM (inactive)
NCI-H226
  GI50: > 100 µM (inactive)
HT-29
  GI50: > 100 µM (inactive)
786-0
  GI50: > 100 µM (inactive)
A498
  GI50: > 100 µM (inactive)
NCI-H522
  GI50: > 100 µM (inactive)
UACC-62
  GI50: 19.1 µM (inactive)
ACHN
  GI50: > 100 µM (inactive)
MDA-MB-231
  GI50: > 100 µM (inactive)
KM12
  GI50: > 100 µM (inactive)
SK-MEL-28
  GI50: > 100 µM (inactive)
LOX IMVI
  GI50: > 100 µM (inactive)
COLO 205
  GI50: > 100 µM (inactive)
BT-549
  GI50: > 100 µM (inactive)
CCRF-CEM
  GI50: > 100 µM (inactive)
SNB-19
  GI50: > 100 µM (inactive)
UACC-257
  GI50: > 100 µM (inactive)
HCT-15
  GI50: > 100 µM
DU-145
  GI50: > 100 µM (inactive)
SK-OV-3
  GI50: > 100 µM (inactive)
NCI/ADR-RES
  GI50: > 100 µM (inactive)
NCI-H23
  GI50: > 100 µM (inactive)
SK-MEL-2
  GI50: > 100 µM (inactive)
OVCAR-8
  GI50: > 100 µM (inactive)
SK-MEL-5
  GI50: > 100 µM (inactive)
HCT-116
  GI50: > 100 µM (inactive)
MDA-MB-435
  GI50: > 100 µM (inactive)
SF-295
  GI50: > 100 µM (inactive)
M14
  GI50: > 100 µM (inactive)

— ChEMBL document CHEMBL1201862, “PubChem BioAssay data set” (2004)
